Data from patent US8389482B2, “Short peptides useful for treatment of ischemia/reperfusion injury and other tissue damage conditions associated with nitric oxide and its reactive species” (New York University, priority 2007, dated 2013).
Residues, ends and D or L forms follow the SMILES beside them.

What was measured:
[1] = test system: 3-nitrotyrosine (3-NT) in myocardial tissue; experiment: 3-NT accumulation in heart tissue (area at risk) in a rat model of MI, dot-immunoblotting with anti-3-NT antibodies; type: in vivo; settings: 0.7 mg/kg i.v. 5 minutes after beginning of reperfusion
Experimental: (§1) Myocardial ischemia (MI) was produced in anaesthetized adult male Wistar rats (300-350 grams) under controlled ventilation. After thoracotomy at the fourth intercostal space, the heart was exteriorized and a 6-0 silk ligature was passed under the left coronary artery with a needle. After 30 minutes of MI, the ligature was released and the myocardium was reperfused for 1 hour. Rats were randomized 5 minutes after the beginning of reperfusion to receive either vehicle (control, n=6) or L-CEFH peptide (0.7 mg/kg; n=9) i.v. The extent of MI/R injury, or infarct size, was determined by calculating the ratio of the area of necrosis (NA) to the area at risk (AR). Accumulation of 3-NT in the tested heart tissue corresponding to the area at risk was analyzed by Western dot-immunoblotting of total protein (extracted from the area at risk) with antibodies against 3-NT.

[2] = test system: peroxynitrite (ONOO)-nitrated albumin; experiment: In vitro denitration of peroxynitrite-nitrated albumin, dot-immunoblotting with antibodies against 3-NT; type: biochemical; settings: 20 μM peptide, 10 mM Tris HCl pH 7.2, 25° C., after 10 minutes
Excerpt: Several groups have previously reported an in vivo denitration phenomenon (e.g., Kamisaki et al (1998) Proc Natl Acad Sci USA 95: 11584-11589; Aulak et al (2004) Am J Physiol Heart Circ Physiol 286: H30-H38). However, they tried to isolate denitration activity using pure 3-NT and failed. The present inventors have hypothesized that the stability of pure 3-NT is much higher than the stability of 3-NT incorporated in a protein and used ONOO-nitrated albumin as the substrate for detecting denitration activity.
To test the ability of L-CEFH peptide (Cys-Glu-Phe-His; SEQ ID NO: 1) to mediate 3-NT denitration in vitro, 20 μM CEFH peptide solution containing 10 mM Tris HCl pH 7.2 was added to albumin previously nitrated by peroxynitrite (ONOO^−). Denitration of the peroxynitrite (ONOO)-nitrated albumin following 0, 3, or 10 minutes of incubation with L-CEFH peptide was then visualized by dot-immunoblotting with antibodies against 3-NT.

[3] = test system: rat model of myocardial infarction; experiment: Myocardial ischemia-reperfusion (MI/R) injury in a rat model of myocardial infarction, infarct size NA/AR; type: in vivo
Experimental: as §1
Rat model of myocardial infarction was generated as disclosed in Example 3, above. 0, 0.02, 0.05, 0.1, 0.14, 0.35, and 0.7 mg/kg of D-CEFH peptide (N≦4 for each concentration) were administered i.v. The extent of MI/R injury, or infarct size, was determined by calculating the ratio of the area of necrosis (NA) to the area at risk (AR).

[4] = test system: HeLa cells; experiment: HeLa cell survival upon NO/ONOO- exposure, MTS-based assay; settings: 20 μM peptide vs 5 mM cysteine
Experimental: The ability of the L-CEFH peptide (Cys-Glu-Phe-His; SEQ ID NO: 1) to reduce cell death caused by nitric oxide (NO) and peroxynitrite (ONOO^−) was tested in cell culture. Following treatment with NO/ONOO^−, HeLa cells were incubated with either a control buffer, 5 mM cysteine, or 20 μM L-CEFH peptide for 40 minutes. The percentage of cells surviving was determined by a MTS-based assay (available from Promega, Madison, Wis.).

[5] = test system: myocardial ischemia (MI) in rats; settings: cited from earlier work
[6] = test system: myocardial tissue 3-NT; settings: cited from earlier work
[7] = 5 mg/kg i.v., infused 1 minute prior to ischemia

Compound: N[C@@H](CS)C(=O)N[C@@H](CCC(=O)O)C(=O)N[C@@H](Cc1ccccc1)C(=O)N[C@@H](Cc1c[nH]cn1)C(=O)O [L-CEFH, Cys-Glu-Phe-His] (H-CEFH-OH; N-terminus and C-terminus assumed)
- reduction of 3-NT accumulation as compared to the control [1]: about 70%
- denitration of peroxynitrite (ONOO)-nitrated albumin [2]: > 90%
- decrease in the infarct size (NA/AR) as compared to the control ([3]; 0.7 mg/kg i.v. 5 minutes after beginning of reperfusion, 30 min MI, 1 hour reperfusion): 3-5 fold
- dose producing maximal effect in preventing MI/R injury ([3]; i.v., rat model of MI): 0.7 mg/kg
- times lower concentration than cysteine giving equivalent efficacy [4]: 250 times

Compound: COC(=O)[C@@H](N)CCCNC(=N)N[N+](=O)[O-] [L-NAME]
- infarct size ([5]; 50 mg/kg i.p.): reduction
- 3-NT ([6]; 50 mg/kg i.p.): reduction

Compound: O=NO [sodium nitrite]
- I/R infarct size compared with saline treated controls [5, 7]: significant expansion
- myocardial tissue 3-NT accumulation compared with saline treated controls [6, 7]: significant expansion

Compound: Cys-Glu-Phe-His [D-CEFH]
- fold lower concentration than L-CEFH for the same effect in preventing MI/R injury ([3]; 0.05 mg/kg vs 0.7 mg/kg, i.v.): 14 fold
- activity in preventing MI/R injury as compared to L-CEFH ([3]; i.v., rat model of MI): superior activity
- dose producing maximal effect in preventing MI/R injury ([3]; i.v., rat model of MI): 0.1 mg/kg
- dose producing the same effect as the maximal effect of L-CEFH (0.7 mg/kg) ([3]; i.v., rat model of MI): 0.05 mg/kg
